According to patent US20210207099A1, “METHODS AND COMPOSITIONS FOR GENERATING CELLS OF ENDODERMAL LINEAGE AND BETA CELLS AND USES THEREOF” (priority 2018, published 2021):

How the values were obtained:
Assay type in all cases: cell-based, human
[1] = test system: HUES8 cells, hepatic differentiation protocol; test: Liver differentiation with cytoskeletal compounds; conditions: 1 μM for the first 24 hours of stage 3
Method: For differentiation to other endodermal lineages, HUES8 stem cells were cultured and passaged normally. Differentiations were initiated 24 hours after seeding 24-well plates at 0.521×10^6 cells/cm^2. Protocols for exocrine pancreas, intestine, and liver were adapted, from literature. Either latrunculin A or nocodazole were added as indicated in each protocol. All three differentiation protocols used the same stage 1 to induce endoderm. Stage 1 (4 days): BE1 media+100 ng/mL Activin A+3 μM CHIR99021 for the first 24 hours, followed with 3 days of BE1 containing 100 ng/mL Activin A only.
Liver Differentiation: Stage 2 (2 days): BE2 media+50 ng/mL KGF. Stage 3 (4 days): BE3 media+10 ng/mL bFGF+30 ng/mL BMP4 (R&D Systems, 314-BP). For the first 24 hours only, 2 μM retinoic acid and either 1 μM latrunculin A or 1 μM nocodazole were added. Stage 4 (5 days): BE3 media+20 ng/mL OSM (R&D Systems, 295-OM)+20 ng/mL HGF (R&D Systems, 294-HG)+100 nM dexamethasone (MilliporeSigma, D4902).

[2] = test system: plated cells of the SC-β cell protocol; test: Bulk RNA sequencing at stage 6 of plated cells treated with latrunculin A
Method: Cells generated with the suspension protocol were single-cell dispersed from clusters with TrypLE at the end of stage 3 and seeded onto collagen 1 coated 24-well plates at 0.625×10^6 cells/cm^2. Either 0.5 μM latrunculin A was added throughout the entirety of stage 4 or 1 μM latrunculin A was added for the first 24 hours of stage 5. After two weeks in stage 6, RNA was extracted with the RNeasy Mini Kit (Qiagen, 74016), including a DNase treatment (Qiagen, 79254) during extraction. Samples were delivered to Washington University in St. Louis Genome Technology Access Center for library preparation and sequencing. Samples were prepared by RNA depletion using Ribo-Zero according to library kit manufacturer's protocol, indexed, pooled, and sequenced on an Illumine HiSeq.
Differential gene expression analysis was performed using EdgeR. DGEList was used to create the count object and normalized the data using the trimmed mean M-values (TMM) method with calcNormFactors. Pairwise comparisons were performed using exactTest and used topTags to obtain differentially expressed genes and their respective log fold change (log FC) and adjusted p-value (FDR). These values were used to generate volcano plots using ggplot2. Hierarchical clustering and heatmaps were performed and generated with heatmap.2 (gplots) using log CPM calculated expression levels. […]

[3] = test system: HUES8 cells differentiated with the planar protocol; test: Latrunculin A in the completely planar SC-β cell differentiation protocol
Method: Planar protocol: 24 hours after passaging, cells seeded onto 6 or 24-well plates at 0.313-0.521×10^6 cells/cm^2 were differentiated with a new 6 stage protocol using the following formulations, with media changes every day. Stage 1 (4 days): BE1 media+100 ng/mL Activin A+3 μM CHIR99021 for the first 24 hours, followed with 3 days of BE1 containing 100 ng/mL Activin A only. Stage 2 (2 days): BE2 media+50 ng/mL KGF. Stage 3 (2 days): BE3+50 ng/mL KGF, 200 nM LDN193189, 500 nM TPPB (Tocris, 53431), 2 μM retinoic acid, and 0.25 μM SANT1. Stage 4 (4 days): BE3+50 ng/mL KGF, 200 nM LDN193189, 500 nM TPPB, 0.1 μM retinoic acid, and 0.25 μM SANT1. Stage 5 (7 days): S5 media+10 μM ALK5i II+20 ng/mL Betacellulin+0.1 μM retinoic acid+0.25 μM SANT1+1 μM T3+1 μM XXI. 1 μM Latrunculin A was added to this media for the first 24 hours only. Stage 6 (7-25 days): Cultures were kept on the plate with ESFM for the first 7 days. To move to suspension culture, cells could be single cell dispersed with TrypLE and placed in 6 mL ESFM within a 6-well plate at a concentration of 4-5 million cells/well on an orbital shaker at 100 RPM. Assessments were performed 5-8 days after cluster aggregation.
Cells were single-cell dispersed with TrypLE and fixed with 4% PFA for 30 minutes. Cells were then washed with PBS and incubated with ICC solution for 45 minutes at room temperature, incubated with primary antibodies overnight at 4° C., and incubated with secondary antibodies for 2 hours at room temperature. […]

[4] = test system: plated pancreatic progenitors; test: Latrunculin A at different stages of SC-β cell differentiation of plated pancreatic progenitors (flow cytometry, GSIS, insulin content, qRT-PCR)
From the text: For experiments investigating the effects of plating pancreatic progenitors, cells were differentiated with the suspension protocol for stages 1-3. At the end of stage 3, clusters were single cell dispersed with TrypLE and plated onto tissue culture plates coated with various ECM proteins at 0.625×10^6 cells/cm^2. Differentiation media for the remainder of this hybrid protocol were the same as for the suspension protocol with the exception that Y-27632 and Activin A were omitted on days 2-5 of stage 4. […] A variety of ECM coatings were initially tested with this plating methodology, including collagen I (Corning, 354249), collagen IV (Corning, 354245), fibronectin (Gibco, 33016-015), vitronectin (Gibco, A14700), matrigel (Corning, 356230), gelatin (Fisher, G7-500), and laminins 111, 121, 211, 221, 411, 421, 511, and 521 (Biolamina, LNKT-0201). All subsequent experiments with this hybrid protocol were performed on collagen I.
RNA was extracted from either whole clusters or cells directly on the plate with the RNeasy Mini Kit (Qiagen, 74016). Samples were treated with a DNAse kit (Qiagen, 79254) during extraction. The High Capacity cDNA Reverse Transcriptase Kit (Applied Biosystems, 4368814) was used to synthesize cDNA on a thermocycler (Applied Biosystems, A37028). The PowerUp SYBR Green Master Mix (Applied Biosystems, A25741) was used on a StepOnePlus (Applied Biosystems), and real time PCR results were analyzed using a ΔΔCt methodology. TBP and GUSB were both used as housekeeping genes. Primer sequences were as follows.
Cells were single-cell dispersed with TrypLE and fixed with 4% PFA for 30 minutes. Cells were then washed with PBS and incubated with ICC solution for 45 minutes at room temperature, incubated with primary antibodies overnight at 4° C., and incubated with secondary antibodies for 2 hours at room temperature. Cells were then washed twice with ICC solution and filtered before running on the LSRII flow cytometer (BD Biosciences). Analysis was completed with FlowJo.
Static GSIS: To assess the function of cells produced by the hybrid protocol, static GSIS was performed with cells still attached to 96 or 24-well tissue culture plates. To assess function of clusters generated with the planar protocol, approximately 30 clusters were collected and placed in tissue culture transwell inserts (MilliporeSigma, PIXP01250) in a 24-well plate. […] Cells were first incubated in a 2 mM glucose KRB solution at 37° C. for one hour, after which this solution was discarded and replaced with fresh 2 mM glucose KRB. After an additional hour, the supernatant was collected. 20 mM glucose KRB was added for the next hour, after which the supernatant was again collected. Cells were washed with fresh KRB during each solution change. Cells were then single-cell dispersed with TrypLE and counted with the Vi-Cell XR (Beckman Coulter). Supernatants from the low and high glucose challenges were quantified with a human insulin ELISA (ALPCO, 80-INSHU-E10.1), and cell counts were used to normalize insulin secretion.
Whole SC-β cell clusters or cells attached to culture plates were washed twice thoroughly with PBS. Half of the clusters or an equivalent well of plated cells were immersed in TrypLE for cell counts on the Vi-Cell XR. For the other half of the samples, a solution of 1.5% HCl and 70% ethanol was added to either the clusters in eppendorf tubes or directly onto plated cells. After 15 minutes, the plated cells were pipetted vigorously and transferred to eppendorf tubes. The eppendorf tubes from both clusters and plated cells were kept at −20° C. for 72 hours, vortexing vigorously every 24 hours. Samples were then centrifuged at 2100 RCF for 15 minutes. […] Proinsulin and insulin secretion were normalized to the viable cell counts.

[5] = 1 μM for the first 24 hours of stage 5
[6] = 24 hour 1 μM treatment, stage 5

Compound: C/C1=C/C(=O)O[C@@H]2C[C@@H](CC[C@H](C)/C=C\C=C\CC1)O[C@@](O)([C@@H]1CSC(=O)N1)C2 [latrunculin A]
- hepatocyte gene expression [1]: increased hepatocyte gene expression
- immunostaining for AFP [1]: more prevalent with latrunculin A treatment
- gene expression profile at stage 6 ([2]; 0.5 μM throughout stage 4): increasing intestine and stomach gene expression
- gene expression profile at stage 6 [2, 5]: increasing expression of β cell and islet genes
- endocrine induction, SC-β cell specification and off-target lineages [3, 5]: greatly increased endocrine induction and SC-β cell specification while decreasing off-target lineages
- NKX6-1 expression ([3]; added during stage 4 (0.5 μM)): decreasing NKX6-1 expression
- premature expression of NEUROG3 and its downstream targets ([3]; added during stage 4 (0.5 μM)): dramatically increased premature expression of NEUROG3
- endocrine induction, SC-β cell specification and GSIS ([4]; 0.5 μM added during stage 5): greatest increase in endocrine induction, SC-β cell specification, and glucose-stimulated insulin secretion (GSIS)
- endocrine induction and β-cell specification ([4]; 0.5 μM throughout either stage 4 or stage 6): increased both general endocrine induction (CHGA+) and β-cell specification (NKX6-1+/c-peptide+)
- GSIS, optimization of duration and concentration during stage 5 ([4]; 1 μM during the first 24 hours of stage 5): most benefit at the shortest and lowest dose
- expression of endocrine genes [4, 6]: increased expression of endocrine genes
- expression of markers associated with other endodermal lineages [4, 6]: reduced
- pro-insulin/insulin ratio [4, 6]: improved pro-insulin/insulin ratio
- total insulin content [4, 6]: increased total insulin content
